# According to a melting point compilation (Tetko et al.; mined from patent text by program, amines drawn as free bases though some values may be those of a salt):
row,SMILES,melting point [°C]
1,Cc1cn(-c2cccc(OS(N)(=O)=O)c2)cn1,202 to 204
2,COc1cc(-c2cc(C3CCOCC3)no2)cc2oc(=O)c(C)c(C)c12,151
3,COc1ccc2c(c1)c(SC)c(C(=O)O)n2C,165
4,O[C@H](COc1cccc2[nH]ccc12)CN1CC=C(c2c[nH]c3c(Cl)c(Cl)ccc23)CC1,140 to 145
5,COC(=O)c1cc(N(C)C)c(N2CCCCC2)c(N(C)C)c1,103 to 105
6,CCCNC(=O)C(C)=Cc1ccc2[nH]cc(Cc3ccc(C(=O)OC)cc3OC)c2c1,55 to 60
7,Cc1cnccc1C#N,45 to 47
8,CCOP(C)(=O)CC(CC(C)C)NS(=O)(=O)c1ccc(C)cc1 (stereo not drawn),96 to 105
9,CC(=O)c1cn2c3c(cccc13)CCC2,106 to 108
10,CCNC(=O)NCc1cccc2c1C(=O)N(C1(C)CCC(=O)NC1=O)C2=O (stereo not drawn),220 to 222
11,CC(C)(C)NC(=S)N1CCN(c2cnccn2)CC1,153 to 156
12,C[C@@H]1Cc2ccsc2[C@H](C)N1CCCNC(=O)c1ccc(NS(C)(=O)=O)cc1 (relative stereo),148 to 150
13,COc1ccc(C2(C#Cc3ccc(NC(C)=O)cc3)CCC(=O)CC2)cc1OC1CCCC1,79 to 80
14,CCN1C(=O)CCCc2cc(Nc3ncc(Cl)c(Nc4cc(Cl)ccc4OC)n3)c(OC)cc21,194 to 196
15,COc1cc(OC)cc(C2(Cl)C(=O)Nc3ccc(Cl)cc32)c1 (stereo not drawn),157
16,N#Cc1sc2cc([N+](=O)[O-])ccc2c1Cl,204 to 205
17,OCCCn1c(C2CCCCC2)nc2ccc(Cl)cc21,120
18,COc1cccc(-c2[nH]c(-c3ccc(N)cc3)nc2C(=O)Nc2nccs2)c1,262 to 263
19,Cc1cnc2c(c1)cc1c3c(cc([N+](=O)[O-])cc32)C(=O)OC1=O,261 to 262
20,COc1cc(C(=O)CS(C)(=O)=O)cc(OC)c1N(C)C(C)=O,141 to 142

row,SMILES,melting point [°C]
1,CCN(CC)C(=O)c1nc(-c2c(Cl)cc(C(F)(F)F)cc2Cl)[nH]c1C#N,195 to 197
2,O=C(CCCCCBr)c1cc2c3c(c1)CC(=O)N3CCC2,86 to 87
3,NNc1cc(OC2CCCC2)c(Cl)cc1F,77 to 79
4,CC1(C)CC(S(=O)(=O)C(F)c2c(F)cccc2F)=NO1 (stereo not drawn),88
5,C=C(CC(N)C(=O)OCC)CC(NC=O)(C(=O)OCC)C(=O)OCC (stereo not drawn),50
6,COc1ccccc1-c1ccccc1/C=C/C1CC(O)CC(=O)O1 (stereo not drawn),129 to 131
7,CCOC(=O)c1c(C(F)(F)F)nn(-c2c(Cl)cc(Cl)cc2Cl)c1C,95 to 96
8,CC1Cc2ccc(Br)cc2C(c2ccc(N)cc2)=NN1C1CC1 (stereo not drawn),113 to 116
9,CCCC(=O)C(=CNc1ccc(O)cc1OC)C(=O)OCC,140 to 142
10,C[C@@H](N1CCN(S(C)(=O)=O)CC1)[C@](O)(Cn1cncn1)c1ccc(F)cc1F,83 to 85
11,CCOC(=O)c1cn(-c2nonc2C)c2c(F)c(F)c(F)cc2c1=O,201 to 202
12,CCCCCCCCCCCCC#CCO,36 to 37
13,CCOC(=O)/C=C(C)/C=C/C=C(\C)C1=Cc2cc(C(C)(C)C)ccc2OC1,129
14,CCOC(=O)C1=C(C)NC(NC(C)=O)=C(C(=O)OCC)C1C (stereo not drawn),105
15,CNC(=S)C1(c2ccccn2)CCCS1 (stereo not drawn),131
16,O=Cc1cnc(Br)cn1,56 to 58
17,CC1(C)O[C@@]23CC(=O)CC[C@@]2(C)CC[C@@H]1C3,60 to 61
18,CC(C)Cn1c(CN2CCCS2(=O)=O)nc2c(N)nc3c(c21)CCCC3,200 to 203
19,CN1C(=O)C(NC(=O)CCC2CCCCC2)N=C(c2ccccc2)c2ccsc21 (stereo not drawn),189 to 190
20,C[C@H](Cn1ncnn1)n1nnc2cc3c(=O)n(C4CC4)nnc3cc2c1=O,190 to 192

row,SMILES,melting point [°C]
1,COc1cc(F)ccc1C(F)C1CCCCn2c1nc(-c1ccncn1)cc2=O (racemic),228 to 230
2,COc1ccc(F)cc1N1CCN(CCCN2Cc3cc(Cl)c(S(N)(=O)=O)cc3C2=O)CC1,158 to 163
3,CC(C)(C)N1CC(=O)Nc2ccc(I)cc2C1=O,230 to 232
4,CC(=NO)C(C)Oc1ccccc1 (stereo not drawn),65 to 67
5,Cn1cc(C2=C(c3cn(CCCBr)c4ccccc34)C(=O)OC2=O)c2ccccc21,168 to 170
6,CCOC(=O)[C@H]1O[C@@H]1C(=O)N[C@H](COCC(=O)N(C)C)CC(C)C,64 to 65
7,CC(CSc1cc(C(C)(C)C)c(O)c(C(C)(C)C)c1)C(=O)N1CCCC1 (stereo not drawn),125 to 126
8,CCN(Cc1cc(Cl)ccc1OCC1CC1)c1ccc(C(=O)O)nn1,119 to 120
9,Cc1nc2c3c(ccc2n1C)CCC(c1ccccc1)O3 (stereo not drawn),161 to 164
10,CC(C)c1cccc(C(C)C)c1NC(=O)CCl,146 to 148
11,CCC(CC)Nc1cc(C)nc(Nc2c(C)cc(C)cc2C)c1[N+](=O)[O-],104 to 107
12,CC1(COc2nc3ccccc3o2)Cn2cc([N+](=O)[O-])nc2O1 (stereo not drawn),200 to 203
13,COc1cc2c(cc1O)C(O)CN(Cc1cc(OC)c(OC)c(OC)c1)C2 (stereo not drawn),62 to 63
14,COc1ccc(-c2cc3ccc(C(=O)O)cc3s2)cc1C12CC3CC(CC(C3)C1)C2,305
15,CNc1nc(OC)c(C(=O)OC)cc1Br,136 to 138
16,Clc1ccc(C2(Cn3ccnc3)OC2c2ccc(Cl)cc2Cl)cc1 (stereo not drawn),102 to 103
17,CC(C(=O)O)c1ccc(N=c2sccn2C)cc1 (stereo not drawn),130 to 132
18,CC(=O)Nc1ccc(S(=O)(=O)Nc2nnc(CO)s2)cc1,101 to 102
19,Cc1cnc2c(c1)n(C(C)C)c(=O)n2-c1ccc(Oc2nc3cccnc3n2C)cc1,252

# Continued, values first:
row,melting point [°C],SMILES
1,> 300,O=C(O)c1ccc(-c2nc3ccccc3s2)nc1
2,124 to 127,Cc1ccc(-c2ccc(CCCCC(=O)O)s2)cc1
3,181 to 184,CCCOc1ccccc1C(=O)Nc1ncccc1C(N)=O
4,179 to 180,CC(=O)CCc1cccc(C)c1NC(=O)CC1c2ccccc2Oc2ccccc21
5,84 to 85,CN(CCc1c[nH]c2ccc(CN)cc12)Cc1ccccc1
6,149 to 151,CCCCCc1ccc(OC(=O)c2ccc(O)cc2Cl)cc1
7,122,CCCC[C@@H](NC(=O)[C@H](Cc1ccc(O)cc1)NC(=O)OC(C)(C)C)C(=O)NCC(=O)OCc1ccccc1
8,117 to 118,O=Cc1cn(Cc2cc(OCc3ccccc3)cc(OCc3ccccc3)c2)cc1-c1ccccc1
9,182 to 184,CCOC(=O)c1oc2ccc(Cc3ccc(O)cc3)c(O)c2c1C
10,126 to 127,O=C(CCc1ccccc1)N[C@H](Cc1ccc(C(F)(F)F)cc1)[C@@H](O)c1ccc(F)cc1F (racemic)
11,284 to 286,O=c1[nH]c2cc(Cl)ccc2c(O)c1-c1ccc(/C=C\c2ccccc2)cc1
12,84.5 to 87,COC(=O)c1ccc(C(C)C(C)NCC(O)c2ccc(O)c(CO)c2)cc1 (stereo not drawn)
13,206 to 210,O=C(O)Cc1c(C(=O)c2ccccc2)[nH]c2cc(Cl)c(Cl)cc12
14,165 to 168,O=C(c1ccccc1)c1[nH]c2cc(Cl)ccc2c1NC(=O)C(F)(F)F
15,113 to 115,O=S(=O)(CCO)C(F)(F)C(O)(Cn1cncn1)c1ccc(F)cc1F (stereo not drawn)
16,78 to 80,COC(=O)C1Oc2ccc3c(-c4ccccc4)noc3c2O1 (stereo not drawn)
17,183 to 185,Cc1cccc(-c2ncc(NC(=O)OCc3ccccc3)c(=O)n2CC(=O)O)c1
18,216 to 218,N#Cc1cccc(-n2c(=O)c(C(=O)Cc3ccccc3)c(O)c3cccnc32)c1
19,140,CNC(=O)C(C)c1ccc2c(c1)CCc1ccccc1C2=O (stereo not drawn)
20,227 to 228,COc1ccc(C(NC(=O)CC2CCCC2)C2=CCc3ccccc32)c(C(=O)NS(=O)(=O)c2ccccc2C)c1 (stereo not drawn)

row,melting point [°C],SMILES
1,221,Oc1ccc(-c2nnsc2-c2ccc(O)cc2)cc1
2,245 to 247,CNS(=O)(=O)c1ccc(CCN2CC=C(c3c[nH]c(-c4ccc(F)cc4)c3-c3ccncc3)CC2)cc1OC
3,144 to 146,O=C1c2ccccc2C(=O)N1CCCCN1CCC(c2noc3cc(F)ccc23)CC1
4,219 to 220,O=C(Nc1cnc2sc3c(c2c1-c1ccccc1Cl)CCC3)c1ccc(F)cc1F
5,117,c1ccc(Sc2cc(Sc3ccccc3)ncn2)cc1
6,133 to 135,CCCCc1nn(-c2cc(NC(=O)CC)ccc2Cl)c(=O)n1Cc1ccc(-c2ccccc2S(=O)(=O)NC(=O)OC(C)(C)C)cc1
7,242,Cc1cc(-c2ccc(C(F)(F)F)c(C)c2)nc(-c2cccc(-c3ccc(S(N)(=O)=O)s3)c2)n1
8,253 to 255,Nc1ncnc2c1c(-c1cccnc1)nn2Cc1oc2ccccc2c(=O)c1-c1ccccc1
9,120 to 124,CC(C)(O)CCn1c2ccccc2c2cc(NC(=O)c3ccccc3Cl)ccc21
10,93,COC(=O)c1cc(-c2ccc(C)c(C)c2)n(Cc2ccc(F)cc2)n1
11,190 to 192,O=S(=O)(c1ccccc1)n1c2ccc(C=Cc3ccccc3)cc2c2cc(Cl)cnc21
12,226 to 227,CC(C)(C)C(NC(=O)c1cccc(Cl)c1)Nc1c(Nc2ccc(C(F)(F)F)nc2)c(=O)c1=O (stereo not drawn)
13,250 to 251,COC(=O)c1cc(NC(=O)C2CCCCC2)c2cc(Cc3ccc(F)cc3)cnc2c1O
14,98 to 99,C=CCOc1ccc(C#N)c(OC(C(=O)OC)c2ccccc2C)c1 (racemic)
15,92 to 93,CCC(CC)(CC(=O)Nc1cccc(OCc2ccc3ccc(F)cc3n2)c1)C(=O)O
16,214 to 216,Cc1ccccc1C(=O)Nc1ccc(C(=O)N2CCCC(NC(=O)CN(C)C)c3ccccc32)cc1 (stereo not drawn)
17,240 to 242,Cc1c(/C=C/C(=O)c2c[nH]c3ccccc23)ncn1C(c1ccccc1)(c1ccccc1)c1ccccc1
18,224 to 226,O=C(O)CNC[C@H]1O[C@H](c2ccccc2Cl)c2cc(Cl)ccc2N(Cc2ccccc2)C1=O (relative stereo)
19,167 to 169,O=C1CCN(Cc2ccccc2)CC1C1c2ccccc2C=Cc2ccccc21 (stereo not drawn)
